PubChem BioAssay (NCI)
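Method: 48-hour compound exposure of cells in 96-well plates, five concentrations, linear interpolation of endpoints. At the GI50, growth is halved. TGI is the concentration that stops growth completely.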

Tests used:
Test in all cases: NCI-60 cell line screen, 48 h
SNB-75 CNS = tested on: SNB-75 CNS
SR leukemia = tested on: SR leukemia
K-562 leukemia = tested on: K-562 leukemia
U251 CNS = tested on: U251 CNS
RXF 393 renal = tested on: RXF 393 renal
NCI-H23 lung = tested on: NCI-H23 lung
UACC-257 melanoma = tested on: UACC-257 melanoma
SW-620 colon = tested on: SW-620 colon
LOX IMVI melanoma = tested on: LOX IMVI melanoma
T-47D breast = tested on: T-47D breast

Compound	TGI (SNB-75 CNS) [µM]	TGI (SR leukemia) [µM]	TGI (K-562 leukemia) [µM]	TGI (U251 CNS) [µM]	TGI (RXF 393 renal) [µM]	TGI (NCI-H23 lung) [µM]	TGI (UACC-257 melanoma) [µM]	TGI (SW-620 colon) [µM]	TGI (LOX IMVI melanoma) [µM]	TGI (T-47D breast) [µM]	GI50 (T-47D breast) [µM]	GI50 (K-562 leukemia) [µM]	GI50 (U251 CNS) [µM]	GI50 (LOX IMVI melanoma) [µM]	GI50 (RXF 393 renal) [µM]	GI50 (NCI-H23 lung) [µM]	GI50 (UACC-257 melanoma) [µM]	GI50 (SW-620 colon) [µM]	GI50 (SNB-75 CNS) [µM]	GI50 (SR leukemia) [µM]
O=C(Nc1nc2ccc([N+](=O)[O-])cc2s1)C(=O)C(C(=O)c1ccncc1)C1OC(=O)c2ccccc21 (configuration not stated)	> 100	> 100	> 100	> 100	> 100	> 100	> 100	> 100	–	–	–	–	–	–	–	–	–	–	–	–
O=C1C(=O)N(c2nccs2)C(=O)C(=O)C1c1nc2ccccc2s1	> 100	–	–	> 100	> 100	> 100	> 100	> 100	> 100	–	–	–	–	–	–	–	–	–	–	–
S=c1sc2cscc2s1	35.8	> 100	> 100	> 100	51.5	97.7	44.7	41.1	> 100	–	–	–	–	–	–	–	–	–	–	–
O=C(NC1C2CC3CC(C2)CC1C3)/C(Cl)=C1/Sc2ccccc2NC1=O (configuration not stated)	> 100	> 100	> 100	> 100	> 100	> 100	> 100	> 100	> 100	–	–	–	–	–	–	–	–	–	–	–
OCC(O)C(O)C(O)c1nn(-c2ccccc2)c2nc3cc(Cl)c(Cl)cc3nc12 (configuration not stated)	47.8	> 100	44.1	> 100	47.7	> 100	> 100	> 100	> 100	–	–	–	–	–	–	–	–	–	–	–
Cc1cnccc1N=Nc1ccc(N(C)C)cc1	46.2	–	76.7	70.9	53	68.6	53.5	> 100	53.9	> 100	–	–	–	–	–	–	–	–	–	–
CS(=O)(=O)N(CCC#N)c1ccc(C=O)cc1	> 100	> 100	> 100	> 100	–	–	> 100	> 100	> 100	–	–	–	–	–	–	–	–	–	–	–
COc1ccc2c(CCNC(=O)/C=C/c3ccccc3)c(C(C)=O)[nH]c2c1[N+](=O)[O-]	–	> 100	> 100	> 100	–	58	> 100	> 100	27.3	–	–	–	–	–	–	–	–	–	–	–
C=C(CNC(=O)c1ccccc1)c1ccc(C(=O)Nc2ccccc2N)cc1	–	–	> 100	74.5	> 100	> 100	23.6	> 100	73.2	> 100	4.99	1.26	5.43	6.1	3.08	18.7	3.62	3.62	–	–
O=C(O)c1ccccc1N=Nc1ccc2oc(=O)c(C(=O)Nc3ccccc3)cc2c1	98.3	–	> 100	> 100	> 100	> 100	59.4	> 100	> 100	–	–	–	–	–	–	–	–	–	–	–
N#C/C(=C\c1c(-c2ccccc2)[nH]c2ccccc12)C(=O)c1ccccc1	34	–	> 100	27.4	> 100	> 100	> 100	> 100	> 100	> 100	5.27	> 100	4.73	7.4	9.61	16	10.9	2.97	3.2	–
O=c1cccccc1[O-].O=c1cccccc1[O-].O=c1cccccc1[O-].[Ce+3]	–	–	> 100	93.6	40.4	86.1	96.9	> 100	> 100	–	–	–	18.3	–	–	–	–	–	–	–
Cc1ccccc1C(=O)Oc1ccc(OCc2ccccc2)cc1	> 100	68	> 100	> 100	> 100	> 100	> 100	> 100	> 100	–	–	–	–	–	–	–	–	–	–	–
COC12CCC(C(C(=O)c3ccccc3)=C1C(=O)c1ccccc1)C(O)C2 (configuration not stated)	> 100	> 100	> 100	–	–	> 100	> 100	> 100	–	–	–	–	–	–	–	–	–	–	–	–
Nc1c(C(=O)N/N=C/c2ccc(-c3cc(Cl)c(Cl)cc3Cl)o2)cnn1-c1ccnc2c(C(F)(F)F)cccc12	53	72.9	> 100	> 100	–	47.2	–	> 100	> 100	> 100	2.93	3	4.18	4.37	–	3.32	–	4.05	4.01	4.53
O=C(CCSc1ccnc2c(C(F)(F)F)cccc12)N/N=C/c1cc(Cl)c(Cl)cc1Cl	46.1	–	> 100	32.4	52.3	52.1	> 100	43.4	31.8	59.9	22	39.6	18.4	17.8	20.9	24.1	83.5	23.8	20	–
CCOC(=O)c1ccc(N2C(=O)Cc3ccccc3C2=O)cc1	> 100	> 100	> 100	> 100	> 100	> 100	> 100	> 100	–	–	–	–	–	–	–	–	–	–	–	–
O=C(COc1cccc(/C=C2\Oc3ccc4ccccc4c3C2=O)c1)c1ccc(Cl)cc1	99.4	–	25.5	> 100	61.6	> 100	> 100	88.3	21.9	52.4	15.3	10.8	27.2	8.7	25	30.5	> 100	11.7	29.4	–
CC1(C(=O)O)CCOc2ccccc21 (configuration not stated)	> 100	> 100	> 100	–	> 100	> 100	> 100	> 100	> 100	–	–	–	–	–	–	–	–	–	–	–
CCOC(=O)C1=C(Nc2ccc(Br)cc2)OC/C1=N\NC(=O)c1ccccc1O	> 48.3	18.4	38.6	> 100	14.2	33.1	> 95.3	> 49.4	20.3	–	–	–	–	–	–	–	–	–	–	–
